In patent US4003915A, “Tricyclic imines” (Hoffmann-La Roche Inc., priority 1970, dated 1977):

What was measured:
[1] = anticonvulsant properties (no test described); conditions: in words
[2] = LD50 in mice on oral administration (toxicity); conditions: mouse, in vivo
anti-Parkinson activity = conditions: in words
anticholinergic activity = conditions: in words
antitussive activity = conditions: in words
antidepressant activity = conditions: in words
diuretic activity = conditions: in words

SMILES | LD50 [2] [mg/kg] | activity against Parkinsonism (anti-Parkinson activity) | antidepressant activity (antidepressant activity) | anticholinergic activity (anticholinergic activity) | further results
CN(C)CCN=C1c2ccccc2CCc2c(Br)cccc21 [1-bromo-N-(2-dimethylamino-ethyl)-10,11-dihydro-5H-dibenzo[a,d]cyclohepten-5-imine] | ~750 |  |  |  | anticonvulsant properties [1]: strong
CN(C)CCN=C1c2ccccc2CCc2ccccc21 [N-(2-dimethylamino-ethyl)-10,11-dihydro-5H-dibenzo[a,d]cyclohepten-5-imine] |  | very active |  |  | central and peripheral anticholinergic activity (anticholinergic activity; central and peripheral): strong
CCN(CC)CCN=C1c2ccccc2CCc2ccc(Cl)cc21 [3-chloro-N-(2-diethylamino-ethyl)-10,11-dihydro-5H-dibenzo[a,d]cyclohepten-5-imine] |  |  |  |  | antitussive activity (antitussive activity): strong
CN(C)CCN=C1c2ccccc2CCc2ccc(Cl)cc21 [3-chloro-N-(2-dimethylamino-ethyl)-10,11-dihydro5H-dibenzo[a,d]cyclohepten-5-imine] |  | very active | strong | strong | 
CN(C)CCN=C1c2ccccc2CCc2c(Cl)cccc21 [1-chloro-N-(2-dimethylamino-ethyl)-10,11-dihydro-5H-dibenzo[a,d]cyclohepten-5-imine] | ~750 |  | acts principally as an antidepressant | very weak | 
CCN(CC)CCN=C1c2ccccc2CCc2c(Cl)cccc21 [1-chloro-N-(2-diethylamino-ethyl)-10,11-dihydro-5H-dibenzo[a,d]cyclohepten-5-imine] |  |  |  |  | diuretic activity (diuretic activity): strong
